According to the METLIN SMRT retention time set (Domingo-Almenara et al. 2019):

Experiment: gradient 5% acetonitrile 3 min, to 50% in 2 min, to 85% in 15 min, held 3 min, 100 µL/min
Details: column: Zorbax Extend-C18 2.1 x 50 mm; eluents: water / acetonitrile, 0.1% formic acid
How it was run: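 Pure standards were run in mixtures of ~100 molecules by HPLC coupled to a quadrupole time-of-flight mass spectrometer. The column was a Zorbax Extend-C18 (2.1 × 50 mm, 1.8 μm) at 100 μL/min, with water and acetonitrile each containing 0.1% formic acid, in positive and negative ionization mode. Dead and dwell volumes were 40 μL and 900 μL. Retention time was taken from computationally picked adduct peaks, each manually inspected, with data collected over 3 months.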

With `COc1ccc2[nH]cc(CCn3ccc4c(cnc5nc(-c6ccc(Cl)cc6)nn54)c3=O)c2c1` the RP-LC retention time was 990 s.
`O=C(c1ccco1)N1CCN(C(=O)c2cccn2CC(=O)N2CCc3ccccc32)CC1` showed an RP-LC retention time of 711 s.
`Cc1cc(NC(=O)C2CCCN(c3ccc(=O)n(-c4cccc(F)c4)n3)C2)ccc1Br` (stereo not drawn) gave an RP-LC retention time of 1050 s.
Compound `CC(CCc1ccccc1)NC(=O)C1CCN(S(=O)(=O)c2ccc3c(c2)CCCC(=O)N3)CC1` (stereo not drawn) has an RP-LC retention time of 809 s.
`CC(CNC(=O)Cn1c(=O)n(C(C)C)c2ccc(S(=O)(=O)N3CCCC3)cc21)c1ccccc1` (stereo not drawn) gave an RP-LC retention time of 905 s.
`CCC(c1cccs1)N1C(=O)[C@H]2CN(S(=O)(=O)c3ccc(C)cc3C)C[C@H]2C1=O` (stereo partly drawn) gave an RP-LC retention time of 842 s.
`COc1ccccc1C(=O)N1c2ccccc2NC(=O)CC1C` (stereo not drawn) showed an RP-LC retention time of 639 s.
`CC1CCN(S(=O)(=O)c2cccc(-c3nnc(-c4ccc(Cl)cc4)o3)c2)CC1` gave an RP-LC retention time of 1250 s.
Work on `Cc1ccccc1NC(=O)N1CCC(c2cc(N)on2)CC1` yielded an RP-LC retention time of 644 s.
Compound `Cc1cc(N2CCN(C)CC2)nc2ccc(NC(=S)NCCC(C)C)cc12` has an RP-LC retention time of 572 s.
For `CCCn1cc2c3c(cccc31)CN(C(=O)Nc1cccc(C)c1)CC2`, the RP-LC retention time was 1070 s.
`COc1ccc(-c2nc(C3CC(=O)N(c4ccc(C)cc4)C3)no2)cn1` (stereo not drawn) showed an RP-LC retention time of 946 s.
Compound `CCOC(=O)c1cc(C2CC2)nc2c1c(=O)n(Cc1cccc(Cl)c1)c(=O)n2C` has an RP-LC retention time of 1200 s.
In the case of `CCc1nc2c(c(=O)n1CC(=O)NCc1ccccc1)CN(Cc1ccccc1)CC2`, the RP-LC retention time is reported as 629 s.
`CC(NC(=O)Cn1c(C(F)(F)F)nc2cc3c(cc21)OCCO3)c1ccc2c(c1)OCCCO2` (stereo not drawn) gave an RP-LC retention time of 855 s.
In the case of `CCOc1ccccc1-c1noc(-c2cn(C)c3ccc(F)cc3c2=O)n1`, the RP-LC retention time is reported as 833 s.
Compound `Cc1cc(NC(=O)Cn2c(=O)oc3ccccc32)n(-c2nc3c(F)cccc3s2)n1` has an RP-LC retention time of 1040 s.
With `COc1ccc(C(=O)NCc2c(C)noc2C)cc1F` the RP-LC retention time was 693 s.
Compound `CC1CCN(C(=O)CS(=O)Cc2cnn(-c3ccccc3)c2-n2cccc2)CC1` (stereo not drawn) has an RP-LC retention time of 828 s.
With `COc1ccc(-c2nc(NCCCN3CCCCC3C)c3ccccc3n2)cc1` (stereo not drawn) the RP-LC retention time was 579 s.
With `Cc1cc(C2CCCN2C(=O)Nc2cc(Cl)ccc2C)on1` (stereo not drawn) the RP-LC retention time was 794 s.
Compound `CNC(=O)c1cc(=O)n(CC(=O)Nc2ccc3c(c2)OCO3)c2ccccc12` has an RP-LC retention time of 658 s.
For `Cc1nn(C)c(C)c1CCN(C)C(=O)C1CCCCC(=O)N1` (stereo not drawn), the RP-LC retention time was 570 s.
For `COc1ccc(Cc2nc3nccc(-c4ccco4)n3n2)cc1`, the RP-LC retention time was 855 s.
For `COc1ccc(NS(=O)(=O)c2c(C)nn(-c3ccc(-c4ccccc4)nn3)c2C)cc1OC`, the RP-LC retention time was 895 s.
Compound `CCC1Oc2ccc(S(=O)(=O)N3CCC(C(=O)Nc4ccc(OC)cc4)CC3)cc2NC1=O` (stereo not drawn) has an RP-LC retention time of 861 s.
Work on `Cc1ccc(Cn2nc3ccc(S(=O)(=O)N4CCCC4)cn3c2=O)cc1C` yielded an RP-LC retention time of 952 s.
For `Cc1ccc(-c2noc(Cn3cnc4c(cnn4-c4ccc(C(C)C)cc4)c3=O)n2)cc1`, the RP-LC retention time was 1300 s.
For `Cc1nc(-c2cccnc2)nc2c1CCC(=O)N2CC1CCCO1` (stereo not drawn), the RP-LC retention time was 626 s.
With `CCCNc1cc(N2CCC(CCC(=O)NCc3ccc(N4CCOCC4)cc3)CC2)ncn1` the RP-LC retention time was 631 s.
`COc1ccccc1CCC(=O)N1C[C@@H]2C[C@H](NS(C)(=O)=O)[C@H]1C2` showed an RP-LC retention time of 678 s.
For `O=C(Nc1ccccc1)[C@@H]1OCCN(C2CC2)[C@H]1c1ccccc1`, the RP-LC retention time was 668 s.
`COc1cccc(CNC(=O)NCCC2CCN(S(=O)(=O)c3ccc(F)cc3)CC2)c1` showed an RP-LC retention time of 842 s.
In the case of `COc1ccc(-c2c(C)noc2NC(C)=O)cc1S(=O)(=O)N1CCC2(CC1)OCCO2`, the RP-LC retention time is reported as 680 s.
Work on `COc1ccc(-n2cc(C(=O)OCc3ccco3)c3ccccc3c2=O)cc1` yielded an RP-LC retention time of 970 s.
`Cc1sc(NC(=O)CCCc2nc(-c3ccccc3)no2)nc1-c1ccc(Cl)cc1` showed an RP-LC retention time of 1190 s.
`O=C(NCCCN1CCCC1=O)c1ccc2nc(Cc3ccccc3)oc2c1` showed an RP-LC retention time of 731 s.
For `O=C(Nc1nc(-c2cccc3ccccc23)cs1)c1ccncc1`, the RP-LC retention time was 904 s.
For `Cc1ccc(CNC(=O)N2CCC(c3cc(N)on3)CC2)cc1`, the RP-LC retention time was 692 s.
Compound `C=CC(=O)Nc1cccc(Oc2nc(Nc3ccc(N4CCN(C)CC4)cc3)ncc2Cl)c1` has an RP-LC retention time of 695 s.
`O=C(C1CC1)N1CCc2sc(S(=O)(=O)Nc3cccc(Cl)c3F)cc2C1` showed an RP-LC retention time of 870 s.
With `COc1cc(OC)cc(-c2nc(Cn3cnc4ccccc4c3=O)no2)c1` the RP-LC retention time was 871 s.
In the case of `CC1CS(=O)(=O)N(c2ccc(C(=O)NCCc3c[nH]c4ccccc34)cc2)C1=O` (stereo not drawn), the RP-LC retention time is reported as 780 s.
In the case of `CC(C)S(=O)(=O)c1ccc(C(=O)Nc2onc3c2CCCC3)cc1`, the RP-LC retention time is reported as 732 s.
For `Cc1c(CCC(=O)N[C@H](C)C(=O)O)c(=O)oc2c(C)c(O)ccc12`, the RP-LC retention time was 618 s.
Work on `O=C(CSc1nnc(CCN2CCOCC2)o1)Nc1ccc(F)c(Cl)c1` yielded an RP-LC retention time of 571 s.
`Cn1c(=O)c2ccn(CC(=O)N3CCN(c4ncccn4)CC3)c2n(C)c1=O` gave an RP-LC retention time of 595 s.
Compound `CCOC(=O)CC(=O)CSc1ccc2nnc(-c3cccs3)n2n1` has an RP-LC retention time of 671 s.
With `O=C(Nc1cccc(-c2nnc3n2CCCC3)c1)c1ccc2c(c1)OCO2` the RP-LC retention time was 679 s.
Compound `CC(=O)Nc1ccc(-c2cc(C(=O)N3CCN(c4ccccn4)CC3)c3ccccc3n2)cc1` has an RP-LC retention time of 609 s.
Work on `O=C(Cn1cnc2nc(N3CCCC(C(=O)NC4CC4)C3)sc2c1=O)Nc1ccc(F)c(F)c1` (stereo not drawn) yielded an RP-LC retention time of 705 s.
Work on `CCOc1ccc(NS(=O)(=O)c2cc(C(=O)N3CCN(c4ccccc4)CC3)n[nH]2)cc1` yielded an RP-LC retention time of 883 s.
With `COc1cn(CC(=O)NCc2ccc3c(c2)OCO3)c(CSc2ccccc2)cc1=O` the RP-LC retention time was 618 s.
In the case of `N#Cc1ccc2ccn(CC(=O)N3CCCc4ccccc43)c2c1`, the RP-LC retention time is reported as 963 s.
Compound `COc1cc(NC(=O)N2CCc3c(c(C(=O)N4CCCC4)nn3C)C2)cc(OC)c1` has an RP-LC retention time of 693 s.
With `CCOC(=O)c1ccc(NC(=O)c2cc3c(=O)n(CC(C)C)c4ccccc4n3n2)cc1` the RP-LC retention time was 750 s.
`CC(=O)OC[C@@]1(O)C[C@@]23CC[C@@H]4c5ccoc5C=C[C@@]4(C)[C@@H]2CC[C@@H]1C3` gave an RP-LC retention time of 715 s.
`Cc1nc(-c2cc(S(=O)(=O)Nc3cccc(Cl)c3C)c(C)s2)cs1` showed an RP-LC retention time of 1120 s.
`COC(=O)c1ccc(C(=O)NCc2nc(C)no2)cc1` showed an RP-LC retention time of 637 s.
`CCCCN(C)C(=O)CSc1ncc(S(=O)(=O)c2cccs2)c(N)n1` gave an RP-LC retention time of 749 s.
For `COCC1(O)CCOC2(CCN(Cc3c(F)cccc3Cl)CC2)C1` (stereo not drawn), the RP-LC retention time was 543 s.
Compound `COc1ccc(-c2noc(C3CCCN3C(=O)Nc3ccc(C)cc3C)n2)cc1` (stereo not drawn) has an RP-LC retention time of 925 s.
For `CCc1nnc(-c2nnc(N3CCCC3)c3ccccc23)o1`, the RP-LC retention time was 625 s.
Compound `CN1C(=O)COc2ccc(-c3csc(NC(=O)C4CCCO4)n3)cc21` (stereo not drawn) has an RP-LC retention time of 762 s.
For `COC(=O)c1c(NCC(C)O)c2cc(F)ccc2[nH]c1=O` (stereo not drawn), the RP-LC retention time was 596 s.
In the case of `Cc1ccccc1CNC(=O)C1CCN(S(C)(=O)=O)c2ccccc2O1` (stereo not drawn), the RP-LC retention time is reported as 841 s.
`Cc1cc(C)cc(-c2nnc(Cc3nc(-c4ccccc4F)no3)o2)c1` showed an RP-LC retention time of 1080 s.
In the case of `COc1ccc(-c2noc(Cn3cnc4c(cnn4-c4ccc(F)cc4)c3=O)n2)cc1OC`, the RP-LC retention time is reported as 930 s.
`CCC(N)Cc1c[nH]c2ccccc12` (stereo not drawn) showed an RP-LC retention time of 646 s.
`Cc1nc(C)c(C(=O)N2CCC(Oc3ccc(-c4noc(C5CC5)n4)cc3)C2)s1` (stereo not drawn) showed an RP-LC retention time of 860 s.
With `CC1CCCCN1CCNC(=O)c1cc(S(=O)(=O)N2CCCCC2)ccc1Cl` (stereo not drawn) the RP-LC retention time was 651 s.
Work on `CC(Oc1ccc(Cl)cc1)C(=O)N1CCN(c2cc(-c3ccccc3)[nH]n2)CC1` (stereo not drawn) yielded an RP-LC retention time of 884 s.
With `Cc1cc2c(N3CCCC(C(=O)NCc4ccc(N5CCC(C)CC5)cc4)C3)nccc2s1` (stereo not drawn) the RP-LC retention time was 592 s.
For `CCn1c(=O)c(C)nc2cc(-c3noc(/C=C/c4ccc(OC)cc4)n3)ccc21`, the RP-LC retention time was 1140 s.
`Cc1ccc(S(=O)(=O)N2CCN(CCc3cn(C)c4ncccc34)CC2)cc1` gave an RP-LC retention time of 632 s.
With `CCOc1ccccc1C(=O)Nc1ccc2c(c1)N(CCOC)CCC2` the RP-LC retention time was 1060 s.
Compound `CCc1cc(=O)n(CC(=O)Nc2ccc(F)c(Cl)c2)c(N2CCOCC2)n1` has an RP-LC retention time of 828 s.
Work on `O=C(Cc1noc2ccccc12)NCc1cc(-c2ccc(F)cc2F)on1` yielded an RP-LC retention time of 818 s.
Compound `Cc1nc(NS(=O)(=O)CCOc2ccc(F)cc2)sc1C` has an RP-LC retention time of 710 s.
In the case of `CN(C)C[C@@H]1CN(S(C)(=O)=O)C[C@H]1NC(=O)c1cccn1C`, the RP-LC retention time is reported as 573 s.
`Cc1ccc(NC(=O)Cn2cnc3nc(N4CCC(C(=O)NC5CC5)CC4)sc3c2=O)cc1C` gave an RP-LC retention time of 693 s.
With `CC(NC(=O)CCCn1c2ccccc2c2cnn(C)c(=O)c21)c1ccccc1` (stereo not drawn) the RP-LC retention time was 873 s.
`Cc1c(-c2nnc(C3CC3)o2)c(S(=O)(=O)N2CCN(C(C)C)CC2)c(C)n1C` showed an RP-LC retention time of 610 s.
`Cc1ccn2c(NC(=O)C(C)(C)C)c(-c3ccc(F)cc3)nc2c1` gave an RP-LC retention time of 648 s.
In the case of `COc1ccc2c(c1)C=C(C(=O)NCCc1c[nH]c3ccc(OC)cc13)CO2`, the RP-LC retention time is reported as 800 s.
`O=C(NCc1ccc2c(c1)OCCCO2)c1cccs1` showed an RP-LC retention time of 791 s.
With `Cn1c(=O)n(C)c2cc(CNCCc3ccc(F)cc3)ccc21` the RP-LC retention time was 609 s.
Work on `Cc1cc(Nc2ccccc2)nc(N2CCN(C(=O)Nc3ccc(F)cc3)CC2)n1` yielded an RP-LC retention time of 696 s.
